Reference: ChEMBL document CHEMBL5291721, “A preclinical secondary pharmacology resource illuminates target-adverse drug reaction associations of marketed drugs” (Nat Commun, 2023)

Legend:
[1] = target: T1, Muscarinic acetylcholine receptor M1 (Homo sapiens, UniProt P11229); type: functional, cell-based
T1 sequence (P11229 whole entry): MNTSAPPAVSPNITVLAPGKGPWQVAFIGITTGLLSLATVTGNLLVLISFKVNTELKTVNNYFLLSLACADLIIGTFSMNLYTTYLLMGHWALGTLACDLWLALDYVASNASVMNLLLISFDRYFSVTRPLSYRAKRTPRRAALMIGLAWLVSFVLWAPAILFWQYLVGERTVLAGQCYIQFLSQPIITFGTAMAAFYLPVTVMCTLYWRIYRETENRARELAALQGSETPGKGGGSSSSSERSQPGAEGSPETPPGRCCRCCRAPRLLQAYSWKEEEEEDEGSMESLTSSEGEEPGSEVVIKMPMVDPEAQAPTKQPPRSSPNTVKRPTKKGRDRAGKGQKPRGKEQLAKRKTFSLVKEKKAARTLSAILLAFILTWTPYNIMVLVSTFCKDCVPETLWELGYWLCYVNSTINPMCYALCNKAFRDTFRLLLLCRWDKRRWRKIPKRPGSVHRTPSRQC

[2] = target: Gamma-aminobutyric acid receptor subunit alpha-1 (Rattus norvegicus, UniProt P62813)
Cannabinoid receptor 1 [3] = target: T2, Cannabinoid receptor 1 (Homo sapiens, UniProt P21554); type: functional, cell-based
Cannabinoid receptor 1 [4] = target: T2, Cannabinoid receptor 1; type: functional, cell-based; remark: listed apart in the source
[5] = target: Glutamate receptor ionotropic, NMDA 1 (Rattus norvegicus, UniProt P35439)
Histamine H2 receptor = Histamine H2 receptor (Homo sapiens, UniProt P25021); type: functional, cell-based
[6] = target: T3, 5-hydroxytryptamine receptor 3A (Homo sapiens, UniProt P46098); type: functional
T3 sequence (P46098 whole entry): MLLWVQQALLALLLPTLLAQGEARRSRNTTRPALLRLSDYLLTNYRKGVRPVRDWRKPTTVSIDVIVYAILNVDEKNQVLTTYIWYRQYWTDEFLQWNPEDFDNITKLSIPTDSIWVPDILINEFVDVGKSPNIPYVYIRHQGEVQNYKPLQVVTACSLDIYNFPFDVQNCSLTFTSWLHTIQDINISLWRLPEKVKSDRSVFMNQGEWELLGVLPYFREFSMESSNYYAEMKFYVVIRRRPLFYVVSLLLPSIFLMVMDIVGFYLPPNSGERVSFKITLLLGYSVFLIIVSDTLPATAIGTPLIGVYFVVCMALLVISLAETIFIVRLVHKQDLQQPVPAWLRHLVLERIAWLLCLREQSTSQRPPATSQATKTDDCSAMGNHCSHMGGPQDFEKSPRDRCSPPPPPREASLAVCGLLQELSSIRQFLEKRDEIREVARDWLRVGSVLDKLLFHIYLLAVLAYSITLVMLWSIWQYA

[7] = target: 3',5'-cyclic-AMP phosphodiesterase 4D (Homo sapiens, UniProt Q08499); type: functional
[8] = target: T4, Cholecystokinin receptor type A (Homo sapiens, UniProt P32238)
T4 sequence (P32238 whole entry): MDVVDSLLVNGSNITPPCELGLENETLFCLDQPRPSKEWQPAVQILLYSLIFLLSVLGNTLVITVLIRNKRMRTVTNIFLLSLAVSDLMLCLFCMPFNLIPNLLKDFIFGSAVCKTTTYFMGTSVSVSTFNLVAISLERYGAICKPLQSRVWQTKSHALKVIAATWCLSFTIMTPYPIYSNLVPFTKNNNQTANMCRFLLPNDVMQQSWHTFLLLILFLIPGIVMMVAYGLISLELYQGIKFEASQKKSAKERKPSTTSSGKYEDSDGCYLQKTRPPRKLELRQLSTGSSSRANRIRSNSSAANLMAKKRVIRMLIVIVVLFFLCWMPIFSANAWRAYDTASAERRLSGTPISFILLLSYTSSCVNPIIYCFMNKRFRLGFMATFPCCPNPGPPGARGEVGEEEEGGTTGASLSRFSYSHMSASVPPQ

[9] = target: Growth hormone secretagogue receptor type 1 (Homo sapiens, UniProt Q92847)
Progesterone receptor [10] = target: T5, Progesterone receptor (Homo sapiens, UniProt P06401); type: functional
T5 sequence (P06401 whole entry): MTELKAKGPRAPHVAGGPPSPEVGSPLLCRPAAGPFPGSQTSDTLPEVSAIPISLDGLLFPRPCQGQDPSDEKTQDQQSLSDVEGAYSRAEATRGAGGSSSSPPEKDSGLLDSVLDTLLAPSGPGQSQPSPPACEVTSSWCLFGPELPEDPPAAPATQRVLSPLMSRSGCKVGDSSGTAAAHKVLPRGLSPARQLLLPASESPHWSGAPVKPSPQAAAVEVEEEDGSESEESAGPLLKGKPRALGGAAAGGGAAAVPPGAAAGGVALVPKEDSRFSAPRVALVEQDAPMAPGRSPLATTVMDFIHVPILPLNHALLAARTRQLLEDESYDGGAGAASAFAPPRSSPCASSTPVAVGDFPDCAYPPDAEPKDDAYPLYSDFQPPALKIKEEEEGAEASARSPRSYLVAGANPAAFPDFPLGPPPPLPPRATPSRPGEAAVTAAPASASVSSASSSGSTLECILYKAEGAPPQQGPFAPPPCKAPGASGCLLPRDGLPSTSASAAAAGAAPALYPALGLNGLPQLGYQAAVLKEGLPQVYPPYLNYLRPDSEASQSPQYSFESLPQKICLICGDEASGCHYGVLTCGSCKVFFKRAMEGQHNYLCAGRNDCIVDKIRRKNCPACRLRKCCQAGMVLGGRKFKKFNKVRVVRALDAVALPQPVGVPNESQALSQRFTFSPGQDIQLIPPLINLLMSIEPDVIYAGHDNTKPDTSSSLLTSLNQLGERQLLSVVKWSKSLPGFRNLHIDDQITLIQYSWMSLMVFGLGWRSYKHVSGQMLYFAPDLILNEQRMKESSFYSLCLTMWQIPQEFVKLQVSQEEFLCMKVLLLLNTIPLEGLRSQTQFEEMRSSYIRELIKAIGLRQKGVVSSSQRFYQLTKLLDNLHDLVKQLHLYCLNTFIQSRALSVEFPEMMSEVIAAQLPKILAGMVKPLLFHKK

Progesterone receptor [11] = target: T5, Progesterone receptor; type: functional; remark: listed apart in the source
Histamine H3 receptor = Histamine H3 receptor (Homo sapiens, UniProt Q9Y5N1)
Cannabinoid receptor 1 [12] = target: T2, Cannabinoid receptor 1
Melanocortin receptor 4 = Melanocortin receptor 4 (Homo sapiens, UniProt P32245)
Note: assay procedure not described here.

T2 sequence (P21554 whole entry): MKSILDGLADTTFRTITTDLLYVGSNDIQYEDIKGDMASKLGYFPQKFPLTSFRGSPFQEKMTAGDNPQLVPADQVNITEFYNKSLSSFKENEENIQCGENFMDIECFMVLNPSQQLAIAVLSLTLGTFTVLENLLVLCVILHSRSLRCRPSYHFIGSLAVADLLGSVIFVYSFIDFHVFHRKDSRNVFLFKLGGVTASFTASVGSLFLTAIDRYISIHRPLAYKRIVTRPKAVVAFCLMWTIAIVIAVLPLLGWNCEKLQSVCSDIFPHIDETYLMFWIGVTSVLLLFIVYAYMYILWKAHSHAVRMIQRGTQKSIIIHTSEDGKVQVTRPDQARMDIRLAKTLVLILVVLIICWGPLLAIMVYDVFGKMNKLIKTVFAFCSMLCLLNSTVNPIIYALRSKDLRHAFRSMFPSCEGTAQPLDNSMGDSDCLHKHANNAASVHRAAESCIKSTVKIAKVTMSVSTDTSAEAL
Growth hormone secretagogue receptor type 1, sequence (Q92847 whole entry): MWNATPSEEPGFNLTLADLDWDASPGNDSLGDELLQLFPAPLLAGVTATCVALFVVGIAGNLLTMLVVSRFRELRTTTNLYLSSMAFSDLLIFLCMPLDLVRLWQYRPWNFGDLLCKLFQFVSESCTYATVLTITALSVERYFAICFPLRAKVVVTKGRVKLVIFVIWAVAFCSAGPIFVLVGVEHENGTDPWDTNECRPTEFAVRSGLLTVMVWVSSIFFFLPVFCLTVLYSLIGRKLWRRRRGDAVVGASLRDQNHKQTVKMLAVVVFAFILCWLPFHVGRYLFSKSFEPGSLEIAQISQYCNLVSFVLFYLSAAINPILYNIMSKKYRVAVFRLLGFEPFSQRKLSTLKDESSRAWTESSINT
Melanocortin receptor 4, sequence (P32245 whole entry): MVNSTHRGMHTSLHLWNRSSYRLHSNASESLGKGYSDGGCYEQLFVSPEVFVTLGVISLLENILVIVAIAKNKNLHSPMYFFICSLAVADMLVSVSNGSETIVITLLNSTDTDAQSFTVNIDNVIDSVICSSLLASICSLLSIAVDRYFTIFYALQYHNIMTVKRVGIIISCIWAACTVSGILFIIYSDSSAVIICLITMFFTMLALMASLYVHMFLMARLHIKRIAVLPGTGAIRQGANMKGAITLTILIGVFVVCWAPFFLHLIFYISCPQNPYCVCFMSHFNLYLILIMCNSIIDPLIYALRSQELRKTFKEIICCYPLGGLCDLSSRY
Histamine H2 receptor, sequence (P25021 whole entry): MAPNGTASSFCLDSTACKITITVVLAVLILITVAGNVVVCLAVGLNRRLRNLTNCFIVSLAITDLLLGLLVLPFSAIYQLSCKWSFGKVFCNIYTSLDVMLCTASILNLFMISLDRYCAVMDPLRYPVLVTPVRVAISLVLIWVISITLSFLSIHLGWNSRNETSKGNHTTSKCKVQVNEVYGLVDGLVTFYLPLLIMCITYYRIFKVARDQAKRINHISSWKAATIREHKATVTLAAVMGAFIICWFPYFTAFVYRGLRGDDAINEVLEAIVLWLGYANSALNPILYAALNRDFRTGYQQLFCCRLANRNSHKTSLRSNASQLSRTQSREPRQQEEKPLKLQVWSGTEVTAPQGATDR
3',5'-cyclic-AMP phosphodiesterase 4D, sequence (Q08499 whole entry): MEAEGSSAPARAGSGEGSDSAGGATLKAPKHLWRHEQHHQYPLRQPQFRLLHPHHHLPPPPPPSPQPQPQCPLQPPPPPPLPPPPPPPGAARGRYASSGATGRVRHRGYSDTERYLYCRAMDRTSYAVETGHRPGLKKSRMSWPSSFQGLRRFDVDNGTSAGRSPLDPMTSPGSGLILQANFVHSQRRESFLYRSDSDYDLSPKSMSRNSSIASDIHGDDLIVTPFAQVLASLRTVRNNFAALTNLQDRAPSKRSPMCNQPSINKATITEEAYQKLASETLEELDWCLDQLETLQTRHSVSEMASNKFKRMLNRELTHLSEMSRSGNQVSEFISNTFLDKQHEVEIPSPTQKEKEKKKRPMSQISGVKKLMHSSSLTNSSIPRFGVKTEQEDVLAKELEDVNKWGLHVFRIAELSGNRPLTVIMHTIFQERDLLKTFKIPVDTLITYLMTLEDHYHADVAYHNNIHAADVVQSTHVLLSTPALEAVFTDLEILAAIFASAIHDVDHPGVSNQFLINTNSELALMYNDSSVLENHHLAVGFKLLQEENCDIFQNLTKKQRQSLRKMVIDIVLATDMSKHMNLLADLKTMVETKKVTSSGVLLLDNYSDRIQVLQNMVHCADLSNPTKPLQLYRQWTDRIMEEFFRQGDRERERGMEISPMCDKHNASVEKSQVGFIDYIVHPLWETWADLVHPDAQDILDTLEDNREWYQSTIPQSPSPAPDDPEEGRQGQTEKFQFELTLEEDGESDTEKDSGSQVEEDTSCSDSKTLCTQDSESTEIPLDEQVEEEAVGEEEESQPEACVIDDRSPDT
Gamma-aminobutyric acid receptor subunit alpha-1, sequence (P62813 whole entry): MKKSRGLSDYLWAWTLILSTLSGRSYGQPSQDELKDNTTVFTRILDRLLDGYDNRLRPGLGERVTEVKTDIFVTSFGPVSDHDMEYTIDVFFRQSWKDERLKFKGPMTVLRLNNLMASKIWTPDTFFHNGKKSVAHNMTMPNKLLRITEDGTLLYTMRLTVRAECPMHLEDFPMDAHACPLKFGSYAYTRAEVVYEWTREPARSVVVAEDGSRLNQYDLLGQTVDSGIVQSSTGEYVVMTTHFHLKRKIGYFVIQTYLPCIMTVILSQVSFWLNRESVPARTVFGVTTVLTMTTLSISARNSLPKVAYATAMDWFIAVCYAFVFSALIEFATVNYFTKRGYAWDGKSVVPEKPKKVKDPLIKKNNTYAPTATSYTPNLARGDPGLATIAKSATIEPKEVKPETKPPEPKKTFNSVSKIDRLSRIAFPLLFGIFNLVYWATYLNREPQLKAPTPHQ
Histamine H3 receptor, sequence (Q9Y5N1 whole entry): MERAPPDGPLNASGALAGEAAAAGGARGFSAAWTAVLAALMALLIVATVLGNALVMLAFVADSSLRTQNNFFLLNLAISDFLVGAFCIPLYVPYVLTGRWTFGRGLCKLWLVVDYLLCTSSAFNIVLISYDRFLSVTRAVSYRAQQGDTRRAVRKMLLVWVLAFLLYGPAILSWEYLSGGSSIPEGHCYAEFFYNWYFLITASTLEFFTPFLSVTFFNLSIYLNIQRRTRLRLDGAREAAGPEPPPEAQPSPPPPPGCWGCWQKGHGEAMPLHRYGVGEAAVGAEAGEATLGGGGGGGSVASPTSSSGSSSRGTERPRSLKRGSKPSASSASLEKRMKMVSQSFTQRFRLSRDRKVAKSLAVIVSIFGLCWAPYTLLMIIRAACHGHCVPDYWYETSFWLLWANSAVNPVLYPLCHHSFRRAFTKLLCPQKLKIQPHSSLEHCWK

SMILES	AC50 [1]	AC50 [2]	AC50 [5]	AC50 [6]	AC50 [7]	further results
N#Cc1ccc2c(c1)N(CCCN1CCC(O)CC1)c1ccccc1S2 [PERICIAZINE]	5.58 µM	29.8 µM				
OC[C@H]1O[C@@H](c2ccc(F)c(Cc3cc4ccccc4s3)c2)[C@H](O)[C@@H](O)[C@@H]1O [IPRAGLIFLOZIN]	19.8 µM	> 30 µM				
CN1CCC(=C2c3ccccc3Sc3ccccc32)CC1 [PIMETHIXENE]	0.0216 µM	> 30 µM				
FC(F)(F)c1ccc(CNc2ccc(Cc3c[nH]c4ncc(Cl)cc34)cn2)cn1 [PEXIDARTINIB]	0.389 µM	> 30 µM				
CC(=O)Oc1cc(C(F)(F)F)ccc1C(=O)O [TRIFLUSAL]	> 30 µM	> 30 µM				
CCn1cc(C(=O)O)c(=O)c2cc3c(cc21)OCO3 [OXOLINIC ACID]	> 30 µM	> 30 µM				
CC(C)C[C@H](NC(=O)CNC(=O)c1cc(Cl)ccc1Cl)B(O)O [IXAZOMIB]	> 30 µM	> 30 µM				
O=C(O)c1cc(/N=N/c2ccc(O)c(C(=O)O)c2)ccc1O [OLSALAZINE]	> 30 µM	> 30 µM				
CN(CC1(C)CCCO1)S(=O)(=O)c1ccc(Cl)c(S(N)(=O)=O)c1 (centres undefined) [MEFRUSIDE]		> 30 µM	> 30 µM	> 30 µM	> 30 µM	AC50 (Cannabinoid receptor 1 [3]): > 30 µM; AC50 (Cannabinoid receptor 1 [4]): > 30 µM; AC50 (Histamine H2 receptor): > 30 µM
C#C[C@]1(O)CC[C@H]2[C@@H]3CCC4=CC(=O)CC[C@@H]4[C@H]3C(=C)C[C@@]21CC [ETONOGESTREL]		28 µM	> 30 µM	> 30 µM	> 30 µM	AC50 (Cannabinoid receptor 1 [3]): > 30 µM; AC50 (Cannabinoid receptor 1 [4]): > 30 µM; AC50 (Histamine H2 receptor): > 30 µM
OC[C@@H](O)[C@@H](O)[C@H](O)[C@@H](O)CO [SORBITOL]		> 30 µM				
COc1cc2nccc(Oc3ccc(NC(=O)C4(C(=O)Nc5ccc(F)cc5)CC4)cc3)c2cc1OC [CABOZANTINIB]	2.72 µM			> 30 µM	10 µM	AC50 [8]: > 30 µM; AC50 (Cannabinoid receptor 1 [3]): > 30 µM; AC50 (Cannabinoid receptor 1 [4]): > 30 µM; AC50 [9]: > 30 µM; AC50 (Progesterone receptor [10]): > 30 µM; AC50 (Progesterone receptor [11]): 24 µM; AC50 (Histamine H3 receptor): > 30 µM
CCCC(CCC)C(=O)O [VALPROIC ACID]		> 30 µM	> 10 µM	> 30 µM	> 30 µM	AC50 [8]: > 30 µM; AC50 (Cannabinoid receptor 1 [12]): > 10 µM; AC50 [9]: > 30 µM; AC50 (Melanocortin receptor 4): > 30 µM; AC50 (Histamine H3 receptor): > 10 µM
CC[C@@]1(O)C(=O)OCc2c1cc1n(c2=O)Cc2cc3c([N+](=O)[O-])cccc3nc2-1 [RUBITECAN]		> 30 µM				
COc1cc2nc(N3CCN(C(=O)C4CCCO4)CC3)nc(N)c2cc1OC (centres undefined) [TERAZOSIN]		> 30 µM	> 10 µM	> 10 µM	> 30 µM	AC50 [8]: > 30 µM; AC50 (Cannabinoid receptor 1 [3]): > 30 µM; AC50 (Cannabinoid receptor 1 [4]): > 30 µM; AC50 (Cannabinoid receptor 1 [12]): > 10 µM; AC50 [9]: > 30 µM; AC50 (Histamine H2 receptor): > 10 µM; AC50 (Melanocortin receptor 4): > 30 µM; AC50 (Histamine H3 receptor): > 10 µM
CN1C(C(=O)Nc2ccccn2)=C(O)c2ccccc2S1(=O)=O [PIROXICAM]		> 30 µM	> 10 µM	> 30 µM	> 30 µM	AC50 [8]: > 10 µM; AC50 (Cannabinoid receptor 1 [12]): > 10 µM; AC50 [9]: > 10 µM; AC50 (Histamine H2 receptor): > 30 µM; AC50 (Melanocortin receptor 4): > 10 µM; AC50 (Progesterone receptor [10]): > 10 µM; AC50 (Progesterone receptor [11]): > 10 µM
O=C(O)CO [GLYCOLIC ACID]		> 30 µM				
OC[C@H]1O[C@@](CO)(O[C@H]2O[C@H](CO)[C@@H](O)[C@H](O)[C@H]2O)[C@@H](O)[C@@H]1O [SUCROSE]		> 30 µM	> 30 µM	> 30 µM	> 30 µM	AC50 [8]: > 30 µM; AC50 (Cannabinoid receptor 1 [3]): > 30 µM; AC50 (Cannabinoid receptor 1 [4]): > 30 µM; AC50 [9]: > 30 µM; AC50 (Histamine H2 receptor): > 30 µM; AC50 (Progesterone receptor [10]): > 30 µM; AC50 (Progesterone receptor [11]): > 30 µM; AC50 (Histamine H3 receptor): > 30 µM
CN(C)[C@@H]1C(O)=C(C(N)=O)C(=O)[C@@]2(O)C(O)=C3C(=O)c4c(O)ccc(Cl)c4[C@@](C)(O)[C@H]3C[C@@H]12 [CHLORTETRACYCLINE]		> 30 µM				
CCOC(=O)c1c(C)cc2c(CO)n[nH]c(=O)c2c1C [OXAGRELATE]		> 30 µM				
